Results: ChEMBL document CHEMBL1201862, “PubChem BioAssay data set” (2004)
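Interpolation was linear, between the two tested concentrations surrounding the appropriate level; five concentrations were tested over 48 hours in 96-well plates. GI50 is the concentration that inhibits growth by half.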 Active and inactive are the calls of the source. Rule as the data show it: active = GI50 up to about 1.1 µM and inactive = higher.

Key:
Experiment in all cases: DTP human tumour cell line panel, 48 h
CCRF-CEM = test system: CCRF-CEM
K562 = test system: K562
786-0 = test system: 786-0
TK-10 = test system: TK-10
NCI-H522 = test system: NCI-H522
SK-MEL-2 = test system: SK-MEL-2
SF-268 = test system: SF-268
SNB-75 = test system: SNB-75
HOP-62 = test system: HOP-62
IGROV-1 = test system: IGROV-1
MOLT-4 = test system: MOLT-4
NCI-H226 = test system: NCI-H226
SK-MEL-28 = test system: SK-MEL-28
ACHN = test system: ACHN
OVCAR-5 = test system: OVCAR-5
BT-549 = test system: BT-549
MCF7 = test system: MCF7
MDA-MB-435 = test system: MDA-MB-435
SK-OV-3 = test system: SK-OV-3

Row | Compound | GI50 (CCRF-CEM) | GI50 (K562) | GI50 (786-0) | GI50 (TK-10) | GI50 (NCI-H522) | GI50 (SK-MEL-2) | GI50 (SF-268) | GI50 (SNB-75) | GI50 (HOP-62) | GI50 (IGROV-1) | GI50 (MOLT-4) | GI50 (NCI-H226) | GI50 (SK-MEL-28) | GI50 (ACHN) | GI50 (OVCAR-5) | GI50 (BT-549) | GI50 (MCF7) | GI50 (MDA-MB-435) | GI50 (SK-OV-3)
1 | Cc1cc(C)cc(NC(N)=S)c1 | 19.1 µM (inactive) | > 100 µM (inactive) | 92.5 µM (inactive) | > 100 µM (inactive) | > 100 µM (inactive) | > 100 µM (inactive) | 53.7 µM (inactive) | > 100 µM (inactive) | > 100 µM (inactive) | > 100 µM (inactive) | > 100 µM (inactive) | > 100 µM (inactive) | > 100 µM (inactive) | > 100 µM (inactive) | > 100 µM (inactive) | – | – | – | –
2 | C[C@@H](C(=O)O)N1C(c2ccco2)=C(/C(C=O)=C\c2ccco2)C(=O)/C1=C\c1ccco1 | > 100 µM (inactive) | > 100 µM (inactive) | > 100 µM (inactive) | > 100 µM (inactive) | > 100 µM (inactive) | > 100 µM (inactive) | > 100 µM (inactive) | – | > 100 µM (inactive) | > 100 µM (inactive) | > 100 µM (inactive) | – | > 100 µM (inactive) | > 100 µM (inactive) | > 100 µM (inactive) | > 100 µM (inactive) | > 100 µM (inactive) | > 100 µM (inactive) | –
3 | COc1ccc(-c2nc(-c3cnccn3)n(COCCO)n2)cc1 | > 100 µM (inactive) | > 100 µM (inactive) | > 100 µM (inactive) | > 100 µM (inactive) | > 100 µM (inactive) | – | > 100 µM (inactive) | – | > 100 µM (inactive) | > 100 µM (inactive) | > 100 µM (inactive) | – | > 100 µM (inactive) | – | > 100 µM (inactive) | > 100 µM (inactive) | > 100 µM (inactive) | > 100 µM (inactive) | > 100 µM (inactive)
4 | C/C(=N\O)C1CC2C=C(C#N)C1N(Cc1ccccc1)C2 (stereo unspecified) | > 100 µM (inactive) | > 100 µM (inactive) | > 100 µM (inactive) | > 100 µM (inactive) | – | – | > 100 µM (inactive) | > 100 µM (inactive) | > 100 µM (inactive) | – | > 100 µM (inactive) | > 100 µM (inactive) | > 100 µM (inactive) | 93.8 µM (inactive) | > 100 µM (inactive) | – | > 100 µM (inactive) | > 100 µM (inactive) | > 100 µM (inactive)
5 | COC(=O)/C=C/c1ccc2c(c1)CCC2 | 46.9 µM (inactive) | 30.8 µM (inactive) | 39.4 µM (inactive) | > 100 µM (inactive) | 22.1 µM (inactive) | 48 µM (inactive) | 42.9 µM (inactive) | 18.7 µM (inactive) | > 100 µM (inactive) | 36.5 µM (inactive) | 41.9 µM (inactive) | – | > 100 µM (inactive) | 23.7 µM (inactive) | > 100 µM (inactive) | – | 52.5 µM (inactive) | 63.1 µM (inactive) | > 100 µM (inactive)
6 | N/C(=N\c1ccc(Cl)cc1)NS(=O)(=O)c1ccc(-c2ccccn2)s1 | – | 15.4 µM (inactive) | 15.2 µM (inactive) | 17.3 µM (inactive) | 9.27 µM (inactive) | 14.1 µM (inactive) | 17.3 µM (inactive) | 21.8 µM (inactive) | 18.1 µM (inactive) | 16.1 µM (inactive) | 2.41 µM (inactive) | 17.3 µM (inactive) | 19.4 µM (inactive) | 16.4 µM (inactive) | 21.4 µM (inactive) | 17.3 µM (inactive) | 17.1 µM (inactive) | – | 22.1 µM (inactive)
7 | Cc1ccc(/C(Cl)=C/C=C(C#N)C#N)cc1 | 0.441 µM (active) | 0.817 µM (active) | 1.88 µM (inactive) | 2.25 µM (inactive) | 1.98 µM (inactive) | 6.32 µM (inactive) | 5.9 µM (inactive) | 13.2 µM (inactive) | 1.98 µM (inactive) | 3.59 µM (inactive) | 0.65 µM (active) | 4.39 µM (inactive) | 2.14 µM (inactive) | 2.45 µM (inactive) | 2.6 µM (inactive) | – | 30.4 µM (inactive) | 2.47 µM (inactive) | 5.78 µM (inactive)
8 | COc1ccc(N2C(=O)c3cc(C)cnc3S2(=O)=O)cc1 | > 100 µM (inactive) | > 100 µM (inactive) | > 100 µM (inactive) | > 100 µM (inactive) | > 100 µM (inactive) | > 100 µM (inactive) | > 100 µM (inactive) | > 100 µM (inactive) | > 100 µM (inactive) | > 100 µM (inactive) | > 100 µM (inactive) | > 100 µM (inactive) | > 100 µM (inactive) | > 100 µM (inactive) | > 100 µM (inactive) | > 100 µM (inactive) | – | > 100 µM (inactive) | > 100 µM (inactive)
